How the values were obtained:
Type in all cases: in vivo
Conditions in all cases: 21 days after application
Eleusine indica = assay: Further glasshouse test versus other ACCase-inhibiting herbicides, Table B2-2
Description: (§1) Further tests were employed to test the efficacy of a compound of Formula I versus other ACCase-inhibiting herbicides. The five main targets were Lolium multiflorum, Eleusine indica, Digitaria insularis, Sorghum halepense and Echinochloa crus-galli. Collectively, the populations contained all the major target-site resistance mutations affecting ACCase herbicides. Two L. multiflorum (LM-NTSR-1 and LM-NTSR-2) and one E. crus-galli (ECG-NTSR-1) populations were characterised exclusively by non-target-site resistance (“NTSR”). The target-site resistant L. multiflorum and E. indication populations were 100% homozygous for different ACCase mutations whilst the D. insularis, S. halepense and E. crus-galli samples contained a mixture of homozygous wild and mutant individuals at different genotypic frequencies. Additional underlying NTSR cannot be ruled out in the populations characterised by target-site resistance.
(§2) Around 50 seeds of each of the 24 weed populations were sown in 12-cm pots containing a mixture of peat and compost in a 1:1 ratio. The pots were watered, fertilised and kept in controlled glasshouse conditions set at 24° C./16 hr day, 18° C. night, 65% relative humidity, and a photon flux density of approximately 250 μmol quanta m^−2 s^−1 for Lolium multiflorum. The E. indica, D. insularis, S. halepense and E. crus-galli plants were kept in a separate glasshouse bay characterised by a 17 H photoperiod of 180 μmol m^−2 s^−1 with temperatures of 25° C. day and 19° C. night and 65% relative humidity. When the plants were at the two to four-leaf stage, they were treated with the various ACCase-inhibiting herbicides at 0, 15, 30, 60, 120 and 240 g ai ha^−1 in a spray cabinet mounted with a single mobile Teejet flat fan nozzle (11002VS) calibrated to deliver 200 L ha^−1 at 200 kPa. The L. multiflorum populations were treated by a compound of Formula Ic, clodinafop-propargyl, pinoxaden, cycloxydim and clethodim and the warm season grass weeds E. indica, D. insularis, S. halepense and E. crus-galli were sprayed with a Compound Ic and the commonly employed haloxyfop-methyl and clethodim. Three replicate pots were used per population. Plants were assessed for visual damage compared to the untreated control 21 days after application (0=0% damage; 100=100% damage).

Digitaria insularis = assay: Further glasshouse test versus other ACCase-inhibiting herbicides, Table B2-3
Description: as §1, §2

Sorghum halepense = assay: Further glasshouse test versus other ACCase-inhibiting herbicides, Table B2-4
Description: as §1, §2

Echinochloa Crus-galli = assay: Further glasshouse test versus other ACCase-inhibiting herbicides, Table B2-5
Description: as §1, §2

Lolium multiflorum = assay: Further glasshouse test versus other ACCase-inhibiting herbicides, Table B2-1
Description: as §1, §2

`COC(=O)C(C)Oc1ccc(Oc2ncc(C(F)(F)F)cc2Cl)cc1` (stereo not shown) [Haloxyfop-p-methyl, haloxyfop-methyl] gave a visual damage (Eleusine indica; biotype D2078G, 15 g/ha) of 0%, a visual damage (Eleusine indica; biotype D2078G, 30 g/ha) of 0% and a visual damage (Eleusine indica; biotype D2078G, 60 g/ha) of 60%. For the same compound, the visual damage (Eleusine indica; biotype D2078G, 120 g/ha) was 95%, the visual damage (Eleusine indica; biotype D2078G, 240 g/ha) was 88% and the visual damage (Eleusine indica; biotype G2096A, 15 g/ha) was 3%. The visual damage (Eleusine indica; biotype G2096A, 30 g/ha) was 3%, the visual damage (Eleusine indica; biotype G2096A, 60 g/ha) was 23% and the visual damage (Eleusine indica; biotype G2096A, 120 g/ha) was 30%. It also gave a visual damage (Eleusine indica; biotype G2096A, 240 g/ha) of 53%, a visual damage (Eleusine indica; biotype I2041N, 15 g/ha) of 0% and a visual damage (Eleusine indica; biotype I2041N, 30 g/ha) of 7%. It also gave a visual damage (Eleusine indica; biotype I2041N, 60 g/ha) of 0%, a visual damage (Eleusine indica; biotype I2041N, 120 g/ha) of 10% and a visual damage (Eleusine indica; biotype I2041N, 240 g/ha) of 0%. It also gave a visual damage (Eleusine indica; biotype Sensitive, 15 g/ha) of 100%, a visual damage (Eleusine indica; biotype Sensitive, 30 g/ha) of 100% and a visual damage (Eleusine indica; biotype Sensitive, 60 g/ha) of 100%. For the same compound, the visual damage (Eleusine indica; biotype Sensitive, 120 g/ha) was 100%, the visual damage (Eleusine indica; biotype Sensitive, 240 g/ha) was 100% and the visual damage (Eleusine indica; biotype W2027C, 15 g/ha) was 0%. The visual damage (Eleusine indica; biotype W2027C, 30 g/ha) was 0%, the visual damage (Eleusine indica; biotype W2027C, 60 g/ha) was 17% and the visual damage (Eleusine indica; biotype W2027C, 120 g/ha) was 30%. It also gave a visual damage (Eleusine indica; biotype W2027C, 240 g/ha) of 33%, a visual damage (Digitaria insularis; biotype Sensitive, 15 g/ha) of 100% and a visual damage (Digitaria insularis; biotype Sensitive, 30 g/ha) of 100%. The visual damage (Digitaria insularis; biotype Sensitive, 60 g/ha) was 100%, the visual damage (Digitaria insularis; biotype Sensitive, 120 g/ha) was 100% and the visual damage (Digitaria insularis; biotype Sensitive, 240 g/ha) was 100%. The visual damage (Digitaria insularis; biotype W2027C, 15 g/ha) was 76%, the visual damage (Digitaria insularis; biotype W2027C, 30 g/ha) was 53% and the visual damage (Digitaria insularis; biotype W2027C, 60 g/ha) was 93%. It also gave a visual damage (Digitaria insularis; biotype W2027C, 120 g/ha) of 100%, a visual damage (Digitaria insularis; biotype W2027C, 240 g/ha) of 100% and a visual damage (Sorghum halepense; biotype Sensitive, 15 g/ha) of 93%. For the same compound, the visual damage (Sorghum halepense; biotype Sensitive, 30 g/ha) was 100%, the visual damage (Sorghum halepense; biotype Sensitive, 60 g/ha) was 100% and the visual damage (Sorghum halepense; biotype Sensitive, 120 g/ha) was 100%. For the same compound, the visual damage (Sorghum halepense; biotype Sensitive, 240 g/ha) was 100%, the visual damage (Sorghum halepense; biotype W2027C, 15 g/ha) was 38% and the visual damage (Sorghum halepense; biotype W2027C, 30 g/ha) was 50%. The visual damage (Sorghum halepense; biotype W2027C, 60 g/ha) was 68%, the visual damage (Sorghum halepense; biotype W2027C, 120 g/ha) was 68% and the visual damage (Sorghum halepense; biotype W2027C, 240 g/ha) was 78%. It also gave a visual damage (Echinochloa Crus-galli; biotype Sensitive, 15 g/ha) of 100%, a visual damage (Echinochloa Crus-galli; biotype Sensitive, 30 g/ha) of 100% and a visual damage (Echinochloa Crus-galli; biotype Sensitive, 60 g/ha) of 100%. For the same compound, the visual damage (Echinochloa Crus-galli; biotype Sensitive, 120 g/ha) was 100%, the visual damage (Echinochloa Crus-galli; biotype Sensitive, 240 g/ha) was 100% and the visual damage (Echinochloa Crus-galli; biotype W2027C, 15 g/ha) was 3%. The visual damage (Echinochloa Crus-galli; biotype W2027C, 30 g/ha) was 75%, the visual damage (Echinochloa Crus-galli; biotype W2027C, 60 g/ha) was 73% and the visual damage (Echinochloa Crus-galli; biotype W2027C, 120 g/ha) was 100%. It also gave a visual damage (Echinochloa Crus-galli; biotype W2027C, 240 g/ha) of 100%, a visual damage (Echinochloa Crus-galli; population ECG-NTSR-1 (non-target-site resistance), 15 g/ha) of 73% and a visual damage (Echinochloa Crus-galli; population ECG-NTSR-1 (non-target-site resistance), 30 g/ha) of 87%. It also gave a visual damage (Echinochloa Crus-galli; population ECG-NTSR-1 (non-target-site resistance), 60 g/ha) of 100%, a visual damage (Echinochloa Crus-galli; population ECG-NTSR-1 (non-target-site resistance), 120 g/ha) of 100% and a visual damage (Echinochloa Crus-galli; population ECG-NTSR-1 (non-target-site resistance), 240 g/ha) of 100%.
`CCc1cc(C)cc(CC)c1-c1c(OC(=O)C(C)(C)C)n2n(c1=O)CCOCC2` [Pinoxaden, pinoxaden] showed a visual damage (Lolium multiflorum; biotype C2088R, 15 g/ha) of 0%, a visual damage (Lolium multiflorum; biotype C2088R, 30 g/ha) of 0% and a visual damage (Lolium multiflorum; biotype C2088R, 60 g/ha) of 0%. It also gave a visual damage (Lolium multiflorum; biotype C2088R, 120 g/ha) of 3%, a visual damage (Lolium multiflorum; biotype C2088R, 240 g/ha) of 30% and a visual damage (Lolium multiflorum; biotype D2078G, 15 g/ha) of 3%. For the same compound, the visual damage (Lolium multiflorum; biotype D2078G, 30 g/ha) was 3%, the visual damage (Lolium multiflorum; biotype D2078G, 60 g/ha) was 10% and the visual damage (Lolium multiflorum; biotype D2078G, 120 g/ha) was 45%. The visual damage (Lolium multiflorum; biotype D2078G, 240 g/ha) was 90%, the visual damage (Lolium multiflorum; biotype I1781L, 15 g/ha) was 7% and the visual damage (Lolium multiflorum; biotype I1781L, 30 g/ha) was 7%. The visual damage (Lolium multiflorum; biotype I1781L, 60 g/ha) was 27%, the visual damage (Lolium multiflorum; biotype I1781L, 120 g/ha) was 73% and the visual damage (Lolium multiflorum; biotype I1781L, 240 g/ha) was 98%. It also gave a visual damage (Lolium multiflorum; biotype Sensitive, 15 g/ha) of 100%, a visual damage (Lolium multiflorum; biotype Sensitive, 30 g/ha) of 100% and a visual damage (Lolium multiflorum; biotype Sensitive, 60 g/ha) of 100%. It also gave a visual damage (Lolium multiflorum; biotype Sensitive, 120 g/ha) of 100%, a visual damage (Lolium multiflorum; biotype Sensitive, 240 g/ha) of 100% and a visual damage (Lolium multiflorum; biotype W1999S, 15 g/ha) of 0%. It also gave a visual damage (Lolium multiflorum; biotype W1999S, 30 g/ha) of 0%, a visual damage (Lolium multiflorum; biotype W1999S, 60 g/ha) of 0% and a visual damage (Lolium multiflorum; biotype W1999S, 120 g/ha) of 7%. For the same compound, the visual damage (Lolium multiflorum; biotype W1999S, 240 g/ha) was 33%, the visual damage (Lolium multiflorum; biotype W2027C, 15 g/ha) was 0% and the visual damage (Lolium multiflorum; biotype W2027C, 30 g/ha) was 10%. For the same compound, the visual damage (Lolium multiflorum; biotype W2027C, 60 g/ha) was 62%, the visual damage (Lolium multiflorum; biotype W2027C, 120 g/ha) was 93% and the visual damage (Lolium multiflorum; biotype W2027C, 240 g/ha) was 100%. The visual damage (Lolium multiflorum; population LM-NTSR-1 (non-target-site resistance), 15 g/ha) was 30%, the visual damage (Lolium multiflorum; population LM-NTSR-1 (non-target-site resistance), 30 g/ha) was 85% and the visual damage (Lolium multiflorum; population LM-NTSR-1 (non-target-site resistance), 60 g/ha) was 97%. It also gave a visual damage (Lolium multiflorum; population LM-NTSR-1 (non-target-site resistance), 120 g/ha) of 100%, a visual damage (Lolium multiflorum; population LM-NTSR-1 (non-target-site resistance), 240 g/ha) of 100% and a visual damage (Lolium multiflorum; population LM-NTSR-2 (non-target-site resistance), 15 g/ha) of 0%. For the same compound, the visual damage (Lolium multiflorum; population LM-NTSR-2 (non-target-site resistance), 30 g/ha) was 0%, the visual damage (Lolium multiflorum; population LM-NTSR-2 (non-target-site resistance), 60 g/ha) was 0% and the visual damage (Lolium multiflorum; population LM-NTSR-2 (non-target-site resistance), 120 g/ha) was 65%. The visual damage (Lolium multiflorum; population LM-NTSR-2 (non-target-site resistance), 240 g/ha) was 53%.

From patent publication US20260215428A1, “WEED CONTROL METHOD” (SYNGENTA CROP PROTECTION AG, priority 2023, published 2026)
